Data set [1] in a line: in vitro. The note with it: mouse, microsomes.
Description: Half life in mouse liver microsomes at 50 uM measured for 60 mins in presence of NADP+
For data set [2] the following is noted: mouse, microsomes, 1 h, 50 µM.

Take `C[C@](O)(CS(=O)(=O)c1ccc(F)cc1)C(=O)Nc1ccc(C#N)c(C(F)(F)F)c1` [(R)-BICALUTAMIDE]: the half-life at 1 h, 50 µM in data set [1] is 10 h.

As to `C[C@](O)(COc1ccc(C#N)cc1)C(=O)Nc1ccc(C#N)c(C(F)(F)F)c1` [ENOBOSARM], the CLH in data set [2] is 1400 µL/min/mg.

As usually defined, the half-life is the time needed for the level to fall by half in the phase considered. The low end stands for rapid decline, the high end for slow decline.

These data come from ChEMBL document CHEMBL5338730, “Metabolism-Guided Selective Androgen Receptor Antagonists: Design, Synthesis, and Biological Evaluation for Activity against Enzalutamide-Resistant Prostate Cancer” (J Med Chem, 2023).
